pIC50: −log10 of the molar value. Like-named read-outs stand apart in the source and are kept apart here.
Assays:
MKL-1 = assay: Cell survival by CellTiterGlo, VP-MCC line MKL-1; assay type: cell-based; conditions: VP-MCC; for IC50: MKL-1, CellTiterGlo, normalized to DMSO, read-out: IC50 (nM) MKL-1; for AUC (arbitrary units) MKL-1: area under the dose-response curve
[1] = test system: control (HaCaT) and Merkel cell carcinoma cell lines; assay: Cell survival by CellTiterGlo, all seven cell lines; assay type: cell-based; conditions: for activity on cell viability, in words: MCC and control cell lines; for pIC50: Homo sapiens, HaCaT
Procedure: (§1) Three methods were employed for assessment of MCC and control cell survival/viability after discorhabdin treatment, two metabolic assays and a cell permeability assay. For all three methods, cells were plated in 384-well plates at 2500 cells/well and treated with various concentrations of discorhabdins for various time periods. CellTiterGlo^TM (Promega, Madison, WI, USA) measures cellular ATP content and was used to estimate potency of discorhabdins in cell viability assays as previously described. Continuous monitoring of metabolic activity was accomplished using a cellular reducing potential luminescence assay, the RealTime-Glo^TM MT Cell Viability Assay (Promega, Madison, WI, USA) according to manufacturer’s instructions. Loss of cell plasma membrane integrity was assessed using a cell-impermeant molecule that becomes fluorescent upon binding DNA [82] in parallel with apoptosis detection per manufacturer’s instructions (RealTimeGlo^TM Annexin V Apoptosis and Necrosis Assay-Promega). Two additional assays of apoptotic cell death were also used. Caspase activation in response to treatment of MCC cells by discorhabdins or bortezomib (as a positive control) was measured using the CaspaseGlo® 3/7 Assay (Promega, Madison, WI, USA) according to the manufacturer’s instructions at multiple time points. Inhibition of apoptotic cell death was investigated using pre-treatment of cells with for 1 h with the pan-caspase inhibitor Z-VAD-FMK (Enzo Life Sciences, Farmingdale, NY, USA) followed by treatment with discorhabdins or bortezomib and estimation of cell viability as outlined above.
(§2) In order to compare responses among all of the discorhabdins and cell lines (98 combinations), dose–response curves were generated using identical discorhabdin dilution series. GraphPad Prism 8 (San Diego, CA, USA) software was utilized to graph dose–response data and to calculate IC50 values and area under the dose–response curves (AUC) along with 95% confidence interval estimates using four-parameter logistic nonlinear regression analysis. For further analysis and comparisons, AUC for each cell line/discorhabdin pair was visualized in a heatmap generated in R version 1.3.1073 (R Core Team (2013). R: A language and environment for statistical computing. R Foundation for Statistical Computing, Vienna, Austria, http://www.R-project.org/ (accessed on 12 January 2023).
Figure S39: Activity of discorhabdins against M CC cell lines.
The indicated discorh abd ins were ass essed for th eir ability to affect surviv al of control (H aCaT) and Merkel cell carcino ma cell lines (VN-MCC: MCC13, MCC26, UISO and VP -MCC: MKL-1, MKL-2, Wag a). Cells were plat ed at 2500 cells/well and compounds the next day. Cell survival was estimated by CellTiterGlo (normalized to untreated (DMSO) cells on the same plate). Structures w ere o btained from the supplier and/or the PubChem database or as described in the text. Number in bold in ( ) refers to structures in Figure 1 in the text. Curves were plotted and IC50 values and 95% confidence interval calculated by GraphPad software. […]

HaCaT = assay: Cell survival by CellTiterGlo, control cells; assay type: cell-based, human; conditions: for IC50 / pIC50: Homo sapiens, HaCaT; for IC50: control skin cell line, CellTiterGlo, normalized to DMSO, read-out: IC50 (nM) HaCaT; for pIC50: read-out: IC50 for control cells; for AUC (arbitrary units) HaCaT: area under the dose-response curve, control cells
MCC cell lines = assay: Cell survival by CellTiterGlo, MCC cell lines together; assay type: cell-based; conditions: average over MCC cell lines
Procedure: as §1, §2

UISO = assay: Cell survival by CellTiterGlo, VN-MCC line UISO; assay type: cell-based; conditions: for IC50: CellTiterGlo, normalized to DMSO; for AUC (arbitrary units) UISO: area under the dose-response curve
Waga = assay: Cell survival by CellTiterGlo, VP-MCC line Waga; assay type: cell-based; conditions: for IC50: CellTiterGlo, normalized to DMSO; for AUC (arbitrary units) WaGa: area under the dose-response curve
MKL-2 = assay: Cell survival by CellTiterGlo, VP-MCC line MKL-2; assay type: cell-based; conditions: for IC50: CellTiterGlo, normalized to DMSO; for AUC (arbitrary units) MKL-2: area under the dose-response curve
MCC26 = assay: Cell survival by CellTiterGlo, VN-MCC line MCC26; assay type: cell-based; conditions: for IC50: CellTiterGlo, normalized to DMSO; for AUC (arbitrary units) MCC26: area under the dose-response curve
MCC13 = assay: Cell survival by CellTiterGlo, VN-MCC line MCC13; assay type: cell-based; conditions: for IC50: CellTiterGlo, normalized to DMSO; for AUC (arbitrary units) MCC13: area under the dose-response curve
[2] = test system: VP-MCC cell lines (MKL-1, MKL-2, and Waga); assay: Selectivity VP-MCC versus control cells (average AUC); assay type: cell-based
Excerpt: as §2
(§3) Figure S41: Discorhabdi nselectivity
(§4) Discorhabdin selectivity for VP -MCC and VN- MCCcells was estimated by comparison of activity (average AUC) for each dis corhabdin against VP -MCC (panel A) or VN- MCC (panel B) cell lines compared to control cells . Discorhabdins were sort ed by selectivity from most to least selective. - fold dif fer ence = (av e VN -MCC or VP -MCC AUC/ control AUC). Error bars […]
(§5) (1 picture or pasted object on this page, not shown here)

[3] = test system: VN-MCC cell lines (MCC13, MCC26, and UISO); assay: Selectivity VN-MCC versus control cells (average AUC); assay type: cell-based
Excerpt: as §2, §3, §4, §5

SMILES	IC50 (MKL-1)	AUC (arbitrary units) MKL-1 (MKL-1)	activity on cell viability, in words [1]	IC50 (HaCaT)	AUC (arbitrary units) HaCaT (HaCaT)	averaged potency (IC50) across all MCC cell lines tested (MCC cell lines)	IC50 (UISO)	AUC (arbitrary units) UISO (UISO)	IC50 (Waga)	AUC (arbitrary units) WaGa (Waga)	IC50 (MKL-2)	AUC (arbitrary units) MKL-2 (MKL-2)	IC50 (MCC26)	AUC (arbitrary units) MCC26 (MCC26)	IC50 (MCC13)	AUC (arbitrary units) MCC13 (MCC13)	increased activity against VP-MCC compared to the control [2]	further results
O=C1CC2SC3CC2(C=C1Br)C1=C(N3)C(=O)c2[nH]cc3c2C1=NCC3 (single isomer, unassigned; (+)) [Compound 1]	29 nM	4.944 arbitrary units	most generally toxic compound tested	273 nM	29.87 arbitrary units	sub-micromolar	54 nM	7.172 arbitrary units	57 nM	6.873 arbitrary units	48 nM	6.99 arbitrary units	197 nM	88.19 arbitrary units	64 nM	8.589 arbitrary units		pIC50 (HaCaT): ≥ 6.00
Cn1cnc(S[C@H]2[C@H]3C(=O)C=C4S[C@H]5C[C@]42C2=C(N5)C(=O)c4[nH]cc5c4C2=[N+]3CC5)c1C[C@H](N)C(=O)O (relative stereo) [Compound 14, (−)-(1R,2R,6R,8S,7′S*) discorhabdin H]		901.7 arbitrary units			992.5 arbitrary units			952.3 arbitrary units		930 arbitrary units		946.5 arbitrary units		947 arbitrary units		950.6 arbitrary units		pIC50 ([1]; CellTiterGlo, 10 µM highest concentration tested, read-out: IC50, all cell lines): < 5.00; pIC50 ([1]; essentially inactive compounds, read-out: average IC50 against all the cell lines): < 5.30
O=C1C=C[C@@]23C[C@@H](NC4=C2C2=NCCc5c[nH]c(c52)C4=O)SC3=C1 [Compound 4, (+)-(6S,8S) discorhabdin G*/I]	481 nM	54.17 arbitrary units		2450 nM	267.7 arbitrary units	sub-micromolar	921 nM	121.7 arbitrary units	859 nM	105.3 arbitrary units	879 nM	108.8 arbitrary units	1280 nM	140 arbitrary units	940 nM	124.8 arbitrary units		
Cc1[nH]c2c3c1CCN=C3C1=C(NCCC13C=C(Br)C(=O)C(Br)=C3)C2=O [Compound 18, 14-methyldiscorhabdin C]	175 nM	20.95 arbitrary units		5380 nM	584.7 arbitrary units		670 nM	74.19 arbitrary units	430 nM	51.75 arbitrary units			3060 nM	329.4 arbitrary units	1450 nM	159.8 arbitrary units	> 10 fold	increased activity against VN-MCC compared to control cells (fold difference) [3]: > 3 fold
O=C1C(Br)=CC2(C=C1Br)CCNC1=C2C2=NCCc3c(Br)[nH]c(c32)C1=O [Compound 19, 14-bromodiscorhabdin C]	37.8 nM	7.189 arbitrary units		3740 nM	441.7 arbitrary units	sub-micromolar	412 nM	88.25 arbitrary units	249 nM	50.51 arbitrary units			893 nM	120.6 arbitrary units	511 nM	90.22 arbitrary units	> 10 fold	increased activity against VN-MCC compared to control cells (fold difference) [3]: > 3 fold
CSC1=CC(=O)C(Br)=C[C@]12C=CNC1=C2C2=NCCc3c[nH]c(c32)C1=O [Compound 8, (+)-(6S) N-13-demethyldiscorhabdin U]	22.7 nM	5.221 arbitrary units	one of the most active compounds tested	1010 nM	123.3 arbitrary units	sub-micromolar	251 nM	32.84 arbitrary units	86.9 nM	14.83 arbitrary units			749 nM	80.16 arbitrary units	299 nM	48.65 arbitrary units	> 10 fold	pIC50 (HaCaT): ≥ 6.00
O=C1C=C[C@]2(C=C1Br)CCNC1=C2C2=NCCc3c[nH]c(c32)C1=O [Compound 22, (+)-(6S)-discorhabdin E]	125 nM	14.16 arbitrary units		3010 nM	328.3 arbitrary units	sub-micromolar	459 nM	53.3 arbitrary units	332 nM	36.75 arbitrary units			2000 nM	226.2 arbitrary units	888 nM	106.9 arbitrary units	> 10 fold	
O=C1C=C(SSC2=CC(=O)C(Br)=C[C@]23C=CNC2=C3C3=NCCc4c[nH]c(c43)C2=O)[C@@]2(C=CNC3=C2C2=NCCc4c[nH]c(c42)C3=O)C=C1Br [Compound 10, (−)-(6S,6′S) discorhabdin W]	136 nM	18.4 arbitrary units		4860 nM	538.3 arbitrary units		1240 nM	162.4 arbitrary units	307 nM	40.16 arbitrary units	387 nM	55.04 arbitrary units	2560 nM	290.1 arbitrary units	1380 nM	184.2 arbitrary units	> 10 fold	
O=C1C=C2SC3CC2(C=C1Br)C1=C(N3)C(=O)c2[nH]cc3c2C1=NCC3 (single isomer, unassigned; (-)) [(-)B]		1.929 arbitrary units	comparable activity against MCC and control cell lines		114.3 arbitrary units			33.26 arbitrary units		5.814 arbitrary units		9.451 arbitrary units		80.18 arbitrary units		41.45 arbitrary units		

From article PMC10532587, “An Investigation of Structure–Activity Relationships and Cell Death Mechanisms of the Marine Alkaloids Discorhabdins in Merkel Cell Carcinoma Cells” (Marine Drugs, 2023)
